Laboratory results from patent publication US11666619B2, “Composition for treating atopic dermatitis including herbal medicine mixed extract” (University—Industry Cooperation Group of Kyung Hee …, priority 2016, dated 2023).

What was measured:
BALB/c mouse = test: DNCB-induced AD-like skin lesions in BALB/c mouse: clinical signs, skin thickness, spleen weight, body weight; type: in vivo; settings: DNCB-treated BALB/c mice
Source text: To examine effects of KAJD on atopic dermatitis (AD), DNCB (2,4-dinitrochlorobenzene) was applied to the skin of a BALB/c mouse to induce AD-like symptoms. In many studies regarding atopic dermatitis, models in which atopy-like dermatitis was induced using chemical antigens such as DNCB, 2,4-dinitrofluorobenzene, 2,4,6-trinitrothlorobenzene, etc. are used ([…]. et al, Immunology, 1995, 86, 545-550). In detail, 6-week-old BALB/c mice (20±2 g) were used, which were purchased from Orient Inc. (Seongnam, Korea). Mice were randomly divided into control groups or experimental groups (no treatment, DNCB, DNCB+tacrolimus, DNCB+KAJD), each group including five mice. All mice were raised under a pathogen-free environment with free access to sterile distilled water and solid feed. All mouse experiments were approved by the Experimental Animal Ethics Committee of Kyung Hee University (Approval Number: KHUASP (SE)-14-014). To induce AD-like skin lesions, the dorsal skin of the mouse was shaved, and 100 μL of 2% DNCB was applied thereto using a patch of 1 cm×1 cm twice a week. KAJD or tacrolimus, which is an existing therapeutic agent for AD, was periodically applied to the DNCB-applied skin for 2 weeks. At 28 days, all mice were sacrificed by CO2 inhalation. To examine changes in the skin of the BALB/c mouse by KAJD, clinical signs were observed once a week for 4 weeks. Severities of AD-like lesions in the dorsal skin, which are indicated by erythema/bleeding, edema, exfoliation/dryness, and excoriation/erosion, were scored according to a scale of 0 to 3 (0: absent, 1: mild, 2: moderate, 3: severe). Individual scores were added, and clinical skin scores were defined according to a scale of 0 to 12.

white blood cells (WBCs) = test: Number of white blood cells in blood of DNCB-treated mice (hematology analyzer); type: in vivo, mouse; settings: FIG. 5
Protocol: High levels of white blood cells (WBCs) are observed in most atopic dermatitis patients. Therefore, to examine therapeutic effects of KAJD on atopic dermatitis, the number of WBCs in the blood of mice was analyzed after treatment with KAJD. In detail, whole blood samples were collected from the heart of a mouse, and stored in a Vacutainer™ tube containing EDTA (BD Science, NJ, USA). The number of WBCs, lymphocytes, monocytes, eosinophils, basophils, or neutrophils was analyzed using a HEMAVET 950 hematology analyzer (Drew Scientific, Inc., Oxford, USA).

[1] = system: serum IgE and inflammatory cytokines; test: Serum IgE and inflammatory cytokines in DNCB-treated mice (sandwich ELISA); type: in vivo, mouse; settings: FIG. 6
Protocol: One of the features of AD is high expression levels of blood IgE and inflammatory cytokines. Therefore, to analyze a mechanism of anti-inflammatory activity of KAJD, levels of blood IgE and inflammatory cytokines in DNCB-treated mice were analyzed. In detail, expression levels were analyzed by sandwich ELISA using a BD PharMingen mouse or human ELISA set (Pharmingen, San Diego, Calif., USA). A plate was coated with a capture antibody contained in an ELISA coating buffer (Sigma, St. Louis, Mo., USA), and stored at 4° C. for one day. The plate was washed with 0.05% PBS-Tween 20, and subsequently, blocked with 10% FBS-containing PBS at 20° C. for 1 hour. A standard antigen or sample serially diluted with a dilution buffer (10% FBS-containing PBS) was put in the plate, followed by incubation at 20° C. for 1 hour. Thereafter, biotin-conjugated anti-mouse IgE and SAv-HRP (streptavidin-horseradish peroxidase conjugate) was added to the plate, followed by incubation at 20° C. for 1 hour. Lastly, a TMB (tetramethylbenzidine) substrate solution was added to the plate, and incubated under dark conditions for 15 minutes, and then the reaction was terminated with a 2 N H2SO4 solution. Optical density was measured using an ELISA reader (Versa Max, Molecular Devices, CA, USA) at 450 nm.

Compound: C=CC[C@@H]1/C=C(\C)C[C@H](C)C[C@H](OC)[C@H]2O[C@@](O)(C(=O)C(=O)N3CCCC[C@H]3C(=O)O[C@H](/C(C)=C/[C@@H]3CC[C@@H](O)[C@H](OC)C3)[C@H](C)[C@@H](O)CC1=O)[C@H](C)C[C@@H]2OC [tacrolimus]
- scleroderma (thickness of the dorsal skin) (BALB/c mouse; FIG. 2C): remarkably decrease
- spleen weight (BALB/c mouse; FIG. 2D): remarkably decrease
- severe symptoms of the skin (erythema/bleeding, edema, exfoliation/dryness, excoriation/erosion) (BALB/c mouse; topical application, FIG. 2A): remarkably reduce severe symptoms of the skin
- clinical score (severity score of AD-induced skin lesions) (BALB/c mouse; scale of 0 to 12, applied to DNCB-applied skin for 2 weeks, FIG. 2B): 3.29±0.76
- number of WBC subtypes including lymphocytes, monocytes, eosinophils, basophils, and neutrophils (white blood cells (WBCs)): decrease the number of WBC subtypes
- number of white blood cells (white blood cells (WBCs)): considerably decrease
- serum IgE [1]: considerably inhibit
- serum inflammatory cytokines (IL-6, IL-10, IL-12) [1]: considerably inhibit
